Experimental data from PubChem BioAssay AID1963860 (Molecular Pharmacology Branch, DTP, NCI, 2024).

Tested on: CN0375-F725-PDC KRAS spheroid viability
Experiment: Anticancer human tumor CN0375-F725-PDC patient-derived colon carcinoma cell line growth inhibition [KRAS2]
Details: spheroids with HUVEC and MSC; for IC50: curve of first compound; for viability, T/C: stronger effect = lower value
In short: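 Combination screen of spheroid viability in tumor-cell co-cultures with endothelial (HUVEC) and mesenchymal stem cell stroma. Each agent was tested in half-log dilutions, topping at clinical Cmax or at 10 microM without a known Cmax.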
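Note: spheroids exposed to agents for 7 days.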

`CC(=O)Nc1cccc(-n2c(=O)n(C3CC3)c(=O)c3c(Nc4ccc(I)cc4F)n(C)c(=O)c(C)c32)c1` + C=CC(=O)N1CCN(c2nc(OCC3CCCN3C)nc3c2CCN(c2cccc4cccc(C)c24)C3)CC1CC#N was tested, and the IC50 (second compound 0.0316 µM) was 5.65 nM, the IC50 (second compound 0.1 µM) was 4.91 nM and the IC50 (second compound 0.316 µM) was 3.19 nM. The IC50 (second compound 1 µM) was 1.62 nM, the IC50 (second compound 3.16 µM) was under 0.1 nM and the viability, T/C (second compound 0.0316 µM, first compound 0.0001 µM) was 91%. For the same compound, the viability, T/C (second compound 0.0316 µM, first compound 0.000316 µM) was 85.7%, the viability, T/C (second compound 0.0316 µM, first compound 0.001 µM) was 67.1% and the viability, T/C (second compound 0.0316 µM, first compound 0.00316 µM) was 53.3%. The viability, T/C (second compound 0.0316 µM, first compound 0.01 µM) was 48.6%, the viability, T/C (second compound 0.0316 µM, first compound 0.0316 µM) was 33.9% and the viability, T/C (second compound 0.1 µM, first compound 0.0001 µM) was 92.3%. It also gave a viability, T/C (second compound 0.1 µM, first compound 0.000316 µM) of 86%, a viability, T/C (second compound 0.1 µM, first compound 0.001 µM) of 66.2% and a viability, T/C (second compound 0.1 µM, first compound 0.00316 µM) of 54.2%. It also gave a viability, T/C (second compound 0.1 µM, first compound 0.01 µM) of 44.5%, a viability, T/C (second compound 0.1 µM, first compound 0.0316 µM) of 30.7% and a viability, T/C (second compound 0.316 µM, first compound 0.0001 µM) of 86.8%. It also gave a viability, T/C (second compound 0.316 µM, first compound 0.000316 µM) of 77.7%, a viability, T/C (second compound 0.316 µM, first compound 0.001 µM) of 61.6% and a viability, T/C (second compound 0.316 µM, first compound 0.00316 µM) of 50.8%. The viability, T/C (second compound 0.316 µM, first compound 0.01 µM) was 38.3%, the viability, T/C (second compound 0.316 µM, first compound 0.0316 µM) was 28.1% and the viability, T/C (second compound 1 µM, first compound 0.0001 µM) was 81.9%. For the same compound, the viability, T/C (second compound 1 µM, first compound 0.000316 µM) was 73.1%, the viability, T/C (second compound 1 µM, first compound 0.001 µM) was 53.7% and the viability, T/C (second compound 1 µM, first compound 0.00316 µM) was 41.2%. For the same compound, the viability, T/C (second compound 1 µM, first compound 0.01 µM) was 35.7%, the viability, T/C (second compound 1 µM, first compound 0.0316 µM) was 25.3% and the viability, T/C (second compound 3.16 µM, first compound 0.0001 µM) was 19.1%. The viability, T/C (second compound 3.16 µM, first compound 0.000316 µM) was 20.7%, the viability, T/C (second compound 3.16 µM, first compound 0.001 µM) was 9.33% and the viability, T/C (second compound 3.16 µM, first compound 0.00316 µM) was 12.7%. The viability, T/C (second compound 3.16 µM, first compound 0.01 µM) was 1.9% and the viability, T/C (second compound 3.16 µM, first compound 0.0316 µM) was 7.1%.
